Assay results from US11420935B2, “Bicyclic compounds” (Vivace Therapeutics, Inc., priority 2019, dated 2022).
Read-outs that look alike come from different tables or passages of the source.

Test system: 8×TBD luciferase reporter (YAP) in HEK293T cells
Assay: YAP Reporter Assay (8×TBD firefly luciferase reporter)
Type: cell-based
Conditions: Homo sapiens, HEK-293T
Procedure: HEK293T cells stably transfected with 8×TBD luciferase reporter and pRLTK in 384-well plates were treated with the test compounds, starting from 3 μM (final concentration in assay plate), 1:3 dilution, and 10 points in quadruplicates. Post 24-hr incubation with compounds at 37° C. and 5% CO2, cells were lysed and 8×TBD-driven firefly luciferase and control TK-driven renilla luciferase activities were measured using Promega Dual-Luciferase Reporter Assay System.
Reagents: The reagents used for this study are: DMEM: Invitrogen #11960077, Dual-Glo Luciferase Assay System: Promega-E2980, Puromycin Dihydrochloride: Invitrogen-A1113803, 384-well plate: PerkinElmer-6007480, L-GLUTAMINE: Invitrogen-25030164, Hygromycin B: Invitrogen-10687010, and Penicillin-Streptomycin: Merk-TMS-AB2-C
Media: The media used for this assay were: Culture Medium: DMEM+1 ug/mL puromycin+200 ug/mL hygromycin (with 10% FBS+1 mM L-glutamine); and Assay Medium: DMEM (with 10% FBS+1 mM L-glutamine+1×P/S).
Cell Plating: The appropriate media was warmed at 37° C. by water bath: Culture Medium, Assay Medium, 1*D-PBS, 0.05% trypsin-EDTA. The cells were trypsinized after removing all media, then washed with 1*sterile D-PBS and then with 2 ml 0.05% trypsin-EDTA. The cells were then incubated at RT for one minute. Then 10 ml/75 cm2 flask Assay Medium was added to each flask. Using a 10 ml pipette, the cells were then gently resuspended in the media, until the clumps completely disappeared. The cells were then transferred into 50 ml centrifuge tubes and were centrifuged at 800 rpm for 5 mins. The medium was removed and the cells were resuspended with Assay Medium. An aliquot of cells was used to count the cell density (cells/ml). The cell suspension was then diluted with Assay Medium to a concentration of 6×10^4 cells/ml. 50 ul cells suspension was then plated to 384-well plate (PerkinElmer-6007480), 3×10^3 cells/well and the cells were incubated in an incubator at 37° C., 5% CO2.
Compound Treatment: In the afternoon (incubation of the plate with 3-4 hrs), the test compounds were added by Echo, starting from 3 uM (final concentration in the assay plate), 1:3 dilution, 10 points, quadruplicates. The plate was placed at 37° C., 5% CO2 incubator for 24 hrs.
Detection: The Dual-Glo Luciferase Reagent was prepared by transferring the contents of one bottle of Dual-Glo Luciferase Buffer to one bottle of Dual-Glo Luciferase Substrate to create the Dual-Glo Luciferase Reagent. Mixing was performed by inversion until the substrate was thoroughly dissolved. After mixing, the reagent was aliquoted into 15 ml tubes. In the afternoon (24 hrs post compound treatment), the DMEM+medium in the 384 well plates were aspirated by Microplate Washer.
Measuring firefly luciferase activity: 20 ul Dual-Glo Luciferase Reagent was added to the 384-well plates. The plates were protected from light to prevent interference with the assay. The plates were shaken for 1 min followed centrifuging plates at 1000 rpm for 30 seconds. After waiting at least 10 minutes, the firefly luminescence was measured by Envision.
Measuring renilla luciferase activity: 20 ul Stop-Glo Reagent was added to the 384-well plates. The plates were shaken for 1 min and then centrifuged at 1000 rpm for 30 seconds. After waiting at least 10 minutes, the renilla luminescence was measured by Envision.
Compound IC50 and maximum inhibition on the firefly luciferase and renilla luciferase activities were reported separately.

[1] = HEK293T cells stably transfected with 8×TBD luciferase reporter and pRLTK, 24-hr incubation, firefly luciferase activity, read-out: Firefly Luciferase IC50
[2] = 24 h, read-out: Firefly Luciferase IC50 (μM)

Structure (SMILES) | IC50 [1] [µM] | IC50 [2] [µM]
CNCCCNC(=O)c1ccc2c(Oc3ccc(C(F)(F)F)cc3)cccc2c1 [Compound 34, N-(3-(methylamino)propyl)-5-(4-(trifluoromethyl)phenoxy)-2-naphthamide] | < 0.1 | –
C[C@@H](NC(=O)c1ccc2c(Oc3ccc(C(F)(F)F)cc3)cccc2c1)c1cc(N(C)C)ccn1 [Compound 74, (R)—N-(1-(4-(dimethylamino)pyridin-2-yl)ethyl)-5-(4-(trifluoromethyl)phenoxy)-2-naphthamide] | 1 to 3 | –
C[C@@H](NC(=O)c1cnc2c(Oc3ccc(C(F)(F)F)cc3)cccc2c1)c1cccc2ccsc12 [Compound 105, (R)—N-(1-(benzo[b]thiophen-7-yl)ethyl)-8-(4-(trifluoromethyl)phenoxy)quinoline-3-carboxamide] | 0.1 to 1 | –
CC(=O)N1CC([C@@H](C)NC(=O)c2ccc3c(Oc4ccc(C(F)(F)F)cc4)cccc3c2)C1 [Compound 101, (R)—N-(1-(1-acetylazetidin-3-yl)ethyl)-5-(4-(trifluoromethyl)phenoxy)-2-naphthamide] | 0.1 to 1 | –
C[C@@H](NC(=O)c1ccc2c(Oc3ccc(C(F)(F)F)cc3)cccc2c1)C1CCN(C)CC1 [Compound 157, (R)-N-(1-(1-methylpiperidin-4-yl)ethyl)-5-(4-(trifluoromethyl)phenoxy)-2-naphthamide] | < 0.1 | –
O=C(NC(CCO)c1ccccn1)c1ccc2c(Oc3ccc(C(F)(F)F)cc3)cccc2c1 (stereo not drawn) [Compound 94, N-(3-hydroxy-1-(pyridin-2-yl)propyl)-5-(4-(trifluoromethyl)phenoxy)-2-naphthamide] | < 0.1 | –
CC(C)N1CC([C@H](C)NC(=O)c2ccc3c(Oc4ccc(C(F)(F)F)cc4)cccc3c2)C1 [Compound 132, (S)—N-(1-(1-isopropylazetidin-3-yl)ethyl)-5-(4-(trifluoromethyl)phenoxy)-2-naphthamide] | 0.1 to 1 | –
C[C@H](CCNCCO)NC(=O)c1ccc2c(Oc3ccc(C(F)(F)F)cc3)cccc2c1 [Compound 147, (R)-N-(4-((2-hydroxyethyl)amino)butan-2-yl)-5-(4-(trifluoromethyl)phenoxy)-2-naphthamide] | < 0.1 | –
C[C@@H](NC(=O)c1ccc2c(Oc3ccc(C(F)(F)F)cc3)cccc2c1)c1nnn(C)n1 [Compound 57, (R)—N-(1-(2-methyl-2H-tetrazol-5-yl)ethyl)-5-(4-(trifluoromethyl)phenoxy)-2-naphthamide] | 0.1 to 1 | –
C[C@@H](CN)NC(=O)c1ccc2c(Oc3ccc(C(F)(F)F)cc3)cccc2c1 [Compound 108, (S)—N-(1-aminopropan-2-yl)-5-(4-(trifluoromethyl)phenoxy)-2-naphthamide] | < 0.1 | –
C#C[C@H](C)NC(=O)c1ccc2c(Oc3ccc(C(F)(F)F)cc3)cccc2c1 [Compound 62, (S)—N-(but-3-yn-2-yl)-5-(4-(trifluoromethyl)phenoxy)-2-naphthamide] | < 0.1 | –
O=C(NC(CO)c1ccccn1)c1cnc2c(Oc3ccc(C(F)(F)F)cc3)cccc2c1 (stereo not drawn) [Compound 14, N-[2-hydroxy-1-(2-pyridyl)ethyl]-8-[4-(trifluoromethyl)phenoxy]quinoline-3-carboxamide] | < 0.1 | –
C[C@@H](NC(=O)c1ccc2c(Oc3ccc(C(F)(F)F)cc3)cccc2c1)C1CCN(CCF)CC1 [Compound 154, (R)-N-(1-(1-(2-fluoroethyl)piperidin-4-yl)ethyl)-5-(4-(trifluoromethyl)phenoxy)-2-naphthamide] | 0.1 to 1 | –
C[C@H](CCO)NC(=O)c1ccc2c(Oc3ccc(C(F)(F)F)cc3)cccc2c1 [Compound 114, (R)—N-(4-hydroxybutan-2-yl)-5-(4-(trifluoromethyl)phenoxy)-2-naphthamide] | < 0.1 | –
C[C@H](CN)NC(=O)c1ccc2c(Oc3ccc(C(F)(F)F)cc3)cccc2c1 [Compound 107, (R)—N-(1-aminopropan-2-yl)-5-(4-(trifluoromethyl)phenoxy)-2-naphthamide] | 0.1 to 1 | –
CC(C)NC(=O)c1ccc2c(Oc3ccc(C(F)(F)F)cc3)cncc2c1 [Compound 93, N-isopropyl-4-(4-(trifluoromethyl)phenoxy)isoquinoline-7-carboxamide] | < 0.1 | –
C[C@@H](NC(=O)c1ccc2c(Oc3ccc(C(F)(F)F)cc3)cccc2c1)C(N)=O [Compound 51, (R)—N-(1-amino-1-oxopropan-2-yl)-5-(4-(trifluoromethyl)phenoxy)-2-naphthamide] | < 0.1 | –
C[C@@H](NC(=O)c1ccc2c(Oc3ccc(C(F)(F)F)cc3)cccc2c1)C1CCC1 [Compound 59, (R)—N-(1-cyclobutylethyl)-5-(4-(trifluoromethyl)phenoxy)-2-naphthamide] | < 0.1 | –
C[C@H](NC(=O)c1cc2cccc(Oc3ccc(C(F)(F)F)cc3)c2s1)c1ccccn1 [Compound 97, (S)—N-(1-(pyridin-2-yl)ethyl)-7-(4-(trifluoromethyl)phenoxy)benzothiophene-2-carboxamide] | < 0.1 | –
CC(C)NC(=O)c1ccc2c(Oc3ccc(C(F)(F)F)cc3F)cccc2c1 [Compound 84, 5-(2-fluoro-4-(trifluoromethyl)phenoxy)-N-isopropyl-2-naphthamide] | < 0.1 | –
C[C@H](CCNCC(F)F)NC(=O)c1ccc2c(Oc3ccc(C(F)(F)F)cc3)cccc2c1 [Compound 149, (R)-N-(4-((2,2-difluoroethyl)amino)butan-2-yl)-5-(4-(trifluoromethyl)phenoxy)-2-naphthamide] | < 0.1 | –
COC[C@H](C)NC(=O)c1cnc2c(Oc3ccc(C(F)(F)F)cc3)cccc2c1 [Compound 18, N-[(1S)-2-methoxy-1-methyl-ethyl]-8-[4-(trifluoromethyl)phenoxy]quinoline-3-carboxamide] | < 0.1 | –
CC(C)NC(=O)c1ccc2c(Oc3ccc(Cl)c(Cl)c3)cccc2c1 [Compound 3, 5-(3,4-dichlorophenoxy)-N-isopropyl-naphthalene-2-carboxamide] | – | < 0.1
C[C@@H](NC(=O)c1ccc2c(Oc3ccc(C(F)(F)F)cc3)cccc2c1)c1cccc2ccc(=O)[nH]c12 [Compound 98, N-[(1R)-1-(2-oxo-1H-quinolin-8-yl)ethyl]-5-[4-(trifluoromethyl)phenoxy]naphthalene-2-carboxamide] | < 0.1 | –
N#CCCNC(=O)c1ccc2c(Oc3ccc(C(F)(F)F)cc3)cccc2c1 [Compound 23, N-(2-cyanoethyl)-5-(4-(trifluoromethyl)phenoxy)-2-naphthamide] | – | < 0.1
C[C@H](NC(=O)c1ccc2c(Oc3ccc(C(F)(F)F)cc3)cccc2c1)c1cc(N)ccn1 [Compound 71, (S)—N-(1-(4-aminopyridin-2-yl)ethyl)-5-(4-(trifluoromethyl)phenoxy)-2-naphthamide] | 0.1 to 1 | –
C[C@H](NC(=O)c1cnc2c(Oc3ccc(C(F)(F)F)cc3)cccc2c1)c1ccccn1 [Compound 19, N-[(1S)-1-(2-pyridyl)ethyl]-8-[4-(trifluoromethyl)phenoxy]quinoline-3-carboxamide] | < 0.1 | –
C[C@@H](NC(=O)c1ccc2c(Oc3ccc(C(F)(F)F)cc3)cccc2c1)C1(O)CNC1 [Compound 139, (R)—N-(1-(3-hydroxyazetidin-3-yl)ethyl)-5-(4-(trifluoromethyl)phenoxy)-2-naphthamide] | < 0.1 | –
CN(C#N)CCNC(=O)c1ccc2c(Oc3ccc(C(F)(F)F)cc3)cccc2c1 [Compound 31, N-(2-(N-methylcyanamido)ethyl)-5-(4-(trifluoromethyl)phenoxy)-2-naphthamide] | < 0.1 | –
C[C@H](NC(=O)c1ccc2c(Oc3ccc(C(F)(F)F)cc3)cccc2c1)c1cc(N(C)C)ccn1 [Compound 73, (S)—N-(1-(4-(dimethylamino)pyridin-2-yl)ethyl)-5-(4-(trifluoromethyl)phenoxy)-2-naphthamide] | 0.1 to 1 | –
